The values that follow come from patent publication US20240252668A1, “ANTIBODY DRUG CONJUGATES AND METHODS FOR MAKING THEREOF” (Novartis AG, priority 2021, published 2024).

Data set [1] can be described thus: EPSA determination by supercritical fluid chromatography. The data set is classed as physicochemical. Conditions: for EPSA: modified EPSA method, SFC. A digest of the protocol:
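SFC on a Chirex 3014 column ([…], 3×100 mm, 100 Å). Gradient runs linearly from 5% to 60% methanol containing 20 mM ammonium formate, in scCO2, over 4.5 min.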

Data set [2] deals with MP41 uveal melanoma cell line (heterozygous GNA11 Q209L). The data set can be described thus: Cell proliferation assay (resazurin cell viability), MP41 cell line. The data set is classed as cell-based. A digest of the protocol: (§1)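 Cells seeded the night before, then treated 96 h at 37 °C in RPMI/10% FCS (A375 in DMEM/10% FCS); compounds 260 nM to 0.036 nM in ⅓ dilution steps, one compound 10000 nM to 1.52 nM. Viability read by resazurin addition after 96 h.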
Background: Alamar Blue is a resazurin reagent that responds to reducing activity.

A further data set concerns MDCK-LE monolayers. In words: Cell-based transwell assay with MDCK-low efflux monolayers (passive permeability). Particulars: for % Fraction absorbed / % Recovery / Papp A − B: MDCK-LE monolayers. It is filed as in vitro ADME. The method, then: Cell-based transwell assays with MDCK-low efflux monolayers: Compounds (A1) and 2-15 were tested in MDCK cell sub-clones with low effluxt ransporter activity (MDCK-LE) in order to determine their passive permeability. The incubations were performed at a contract research organization as described previously.

The test system of data set [3] is 92.1 and MP41 cell lines (GNAQ/GNA11 mutant uveal melanoma). The data set can be described thus: Cell proliferation assays, potency ranking over both uveal melanoma lines. It is filed as cell-based. Particulars: 92.1 and MP41 cell lines. An excerpt:
The selective antiproliferative profile of the chromodepsins against GNAQ/GNA11 mutant cell lines is confirmed by the lack of activity against the A375 and SK MEL 30 cell lines that are independent from GNAQ/GNA11 signaling. The potency ranking using the 92.1 and MP41 cell lines is in good agreement with the previously SAR studies. […] These findings are in line with a recent report from Voss et al., highlighting the importance of the “lipophilic anchors” of compound (A1) at the residues varied in compounds 2 and 3, in context of binding kinetics and prolonged residence time on the target proteins. The retained potency of compound 4 indicates a promising exit vector for potential synthetic or biosynthetic modifications of the scaffold. […] The linearized depsipeptides compounds 5-7 lack any antiproliferative activity. In this experimental setup, the cellular permeability of the compounds was a crucial factor contributing to the observed antiproliferative potency. Therefore, all compounds were characterized in a low efflux MCDK assay and determined their exposed polar surface areas (EPSA) in order to assess their passive cellular permeabilities. All macrocyclic chromodepsins that feature the N acyl Hle side chain show similar results concerning their % fraction absorbed (% FA; average ˜60% FA+20%) and EPSA values.
Cell Proliferation Assays with Chromodepsins (compounds (A1) and 2-15): Cell line descriptions: 92.1—uveal melanoma cell line, derived from primary tumor, harboring heterozygous GNAQ Q209L mutation. Purchased from Sigma Aldrich. MP41 (CRL-3297) -uveal melanoma cell line, derived from primary tumor, harboring heterozygous GNA11 Q209L mutation. Purchased from ATCC. A375—skin melanoma cell line, harboring homozygous BRAF V600E mutation. Origin: Cancer Cell Line Encyclopedia (CCLE). SK-MEL-30—skin melanoma cell line, harboring heterozygous NRAS Q61K mutation. Origin: CCLE.
Cells were cultured in 96-well plates in a total volume of 100 μL at 37° C., 5% CO2 and 95% relative humidity. All cell lines were cultured in RPMI Medium (RPMI 1640 w/o L-glutamine, Bioconcept ref. 1-41F01-I) except A375, DMEM medium (DMEM high glucose (4.5 g/L), Bioconcept, ref. 1-26F01-I), and supplemented with 10% FCS (Bioconcept, ref. 2-01F30-I). Two to three thousand cells were seeded in 96-well plates per well the night before they were treated with compounds (concentration range: from 260 nM to 0.036 nM with ⅓ dilution steps; for 7 the concentration range was increased from 10000 nM to 1.52 nM with ⅓ dilution steps). Cell viability was measured by addition of 10 ul of resazurin per well after 96 hours of treatment. Results were analyzed and plotted using GraphPad Prism 9.0.1.

For data set [4], the system named is SK-MEL-30 skin melanoma cell line (heterozygous NRAS Q61K). In words: Cell proliferation assay (resazurin cell viability), SK-MEL-30 cell line. It is filed as cell-based. In a few lines:
as §1

For data set [5], the system named is 92.1 uveal melanoma cell line (heterozygous GNAQ Q209L). In words: Cell proliferation assay (resazurin cell viability), 92.1 cell line. It is filed as cell-based. A digest of the protocol: as §1
The test system of data set [6] is A375 skin melanoma cell line (homozygous BRAF V600E). In words: Cell proliferation assay (resazurin cell viability), A375 cell line. The data set is classed as cell-based. In a few lines: as §1
A further data set has as its system Gαq proteins. Particulars: as has been reported; dynamic mass redistribution; cited from earlier work.
[7] abbreviates: MP41 (GNA11 Q209L), 96 hours of treatment, read-out: GI50 by cell line, MP41.
Setting [8] is: MP41 cell line, average of Rep. 1 and 2, read-out: GI50 MP41 Average.
Where [9] appears, read: MP41 cell line, replicate 1, read-out: GI50 MP41 Rep. 1.
Setting [10] is: MP41 cell line, replicate 2, read-out: GI50 MP41 Rep. 2.
The mark [11] stands for this setting: SK-MEL-30 (GNAQ/11 wild type), 96 hours of treatment, read-out: GI50 by cell line, SK-MEL-30.
The mark [12] stands for this setting: SK-MEL-30 cell line, average of Rep. 1 and 2, read-out: GI50 SK-MEL-30 Average.
Where [13] appears, read: SK-MEL-30 cell line, replicate 1, read-out: GI50 SK-MEL-30 Rep. 1.
Where [14] appears, read: SK-MEL-30 cell line, replicate 2, read-out: GI50 SK-MEL-30 Rep. 2.
The mark [15] stands for this setting: 92.1 (GNAQ Q209L), 96 hours of treatment, read-out: GI50 by cell line, 92.1.
[16] abbreviates: 92.1 cell line, average of Rep. 1 and 2, read-out: GI50 92.1 Average.
The mark [17] stands for this setting: 92.1 cell line, replicate 1, read-out: GI50 92.1 Rep. 1.
Setting [18] is: 92.1 cell line, replicate 2, read-out: GI50 92.1 Rep. 2.
The mark [19] stands for this setting: A375 (GNAQ/11 wild type), 96 hours of treatment, read-out: GI50 by cell line, A375.
[20] abbreviates: A375 cell line, average of Rep. 1 and 2, read-out: GI50 A375 Average.
Setting [21] is: A375 cell line, replicate 1, read-out: GI50 A375 Rep. 1.
[22] abbreviates: A375 cell line, replicate 2, read-out: GI50 A375 Rep. 2.
Setting [23] is: versus macrocyclic chromodepsins with N-acyl-Hle side chain.

Like-named read-outs stand apart in the source and are kept apart here. Starred links: 1 amine or outer side, 2 acyl side, 3 side chain; linkers in the order of their positions; H or OH if unused. Positions of bridges follow the written chain, without caps; N, C: chain ends. Non-standard residues stand in square brackets, D forms with d. Residues, ends and D or L forms follow the SMILES beside them. ξ: configuration not given here. *: point of attachment. Leu(3R-O(AcLeu(3R-OH))) = CC(=O)N[C@H](C(=O)O[C@H](C(C)C)[C@H](N)C(=O)O)[C@H](O)C(C)C; Leu(3R-OH,Nα-propionyl) = CCC(=O)N[C@H](C(=O)*)[C@H](O)C(C)C; X1 = CC(C)[C@@H](O[*:3])[C@H](N[*:1])C(=O)[*:2]; X3 = CC(C)C(O[*:3])C(N[*:1])C(=O)[*:2]; ξLeu(3ξ-OH) = CC(C)C(O)C(N)C(=O)O; NMeT = CN[CH](C(=O)O)[CH](C)O; dPhLac = O=C(O)[C@H](O)Cc1ccccc1; PhLac = O=C(O)[CH](O)Cc1ccccc1; NMeA = CN[CH](C)C(=O)O; NMeDha = C=C(NC)C(=O)O

With `C=C1C(=O)N[C@@H](C)C(=O)N(C)[C@@H](C)C(=O)N[C@@H]([C@H](OC(=O)[C@@H](NC(C)=O)[C@H](O)C(C)C)C(C)C)C(=O)N(C)[C@@H]([C@@H](C)OC)C(=O)O[C@H](C(C)C)[C@H](NC(C)=O)C(=O)O[C@H](Cc2ccccc2)C(=O)N1C` [Compound 8] (Ac-[X1][dPhLac][NMeDha]A[NMeA][Leu(3R-O(AcLeu(3R-OH)))][NMeT](Me); ester 1-C), the EPSA in data set [1] was found to be 94 A^2. Besides, the GI50 was 0.4 nM in data set [2] (setting [7]); 0.4 nM in data set [2] (setting [8]); 0.33 nM in data set [2] (setting [9]); 0.46 nM in data set [2] (setting [10]); more than 260 nM in data set [4] (setting [11]); more than 260 nM in data set [4] (setting [12]). The GI50 in data set [4] (setting [13]) is more than 260 nM; in data set [4] (setting [14]), more than 260 nM; in data set [5] (setting [15]) it was 1 nM; in data set [5] (setting [16]), 1 nM; in data set [5] (setting [17]) it was 0.82 nM; in data set [5] (setting [18]) it was 1.24 nM. In addition, the GI50 in data set [6] (setting [19]), in data set [6] (setting [20]), in data set [6] (setting [21]) and in data set [6] (setting [22]) was more than 260 nM in each case. In addition, in the data set on MDCK-LE monolayers, the “% Fraction absorbed” value is 70.4%. The “% Recovery” value with MDCK-LE monolayers worked out at 78%. In addition, the “Papp A − B” value in the data set on MDCK-LE monolayers was determined as 5.84 ×10⁻⁶ cm/s. For the same compound, the “loss of potency compared to compound (A1) (growth inhibition)” value in data set [3] is given as “two to three”.

For `C=C1C(=O)N[C@@H](C)C(=O)N(C)[C@@H](C)C(=O)N[C@@H]([C@H](OC(=O)[C@@H](NC(=O)CC)[C@H](O)C(C)C)C(C)C)C(=O)N(C)[C@@H]([C@@H](C)OC)C(=O)O[C@H](C)[C@H](NC(C)=O)C(=O)O[C@H](Cc2ccccc2)C(=O)N1C` [Compound 14] (Ac-T[dPhLac][NMeDha]A[NMeA][X1](Leu(3R-OH,Nα-propionyl))[NMeT](Me); ester 1-C), the EPSA in data set [1] stood at 95 A^2. Besides, the GI50 is 2.2 nM in data set [2] (setting [7]); 2.2 nM in data set [2] (setting [8]); 1.5 nM in data set [2] (setting [9]); 2.81 nM in data set [2] (setting [10]); more than 260 nM in data set [4] (setting [11]); more than 260 nM in data set [4] (setting [12]). In addition, the GI50 in data set [4] (setting [13]) is more than 260 nM; in data set [4] (setting [14]), more than 260 nM; in data set [5] (setting [15]) it was 5.2 nM; in data set [5] (setting [16]), 5.2 nM; in data set [5] (setting [17]) it was 2.95 nM; in data set [5] (setting [18]), 7.53 nM. The GI50 in data set [6] (setting [19]), in data set [6] (setting [20]), in data set [6] (setting [21]) and in data set [6] (setting [22]) was more than 260 nM throughout. The “% Fraction absorbed” value in the data set on MDCK-LE monolayers is given as 53.3%. In addition, the “% Recovery” value with MDCK-LE monolayers worked out at 85%. The “Papp A − B” value with MDCK-LE monolayers came to 3.32 ×10⁻⁶ cm/s. The “loss of potency compared to compound (A1) (growth inhibition)” value in data set [3] is approximately 10 fold.

`C=C1C(=O)NC(C)C(=O)N(C)C(C)C(=O)NC(C(O)C(C)C)C(=O)N(C)C(C(C)OC)C(=O)OC(C(C)C)C(NC(C)=O)C(=O)OC(Cc2ccccc2)C(=O)N1C` (stereo not drawn) [Compound 12] (Ac-[X3][PhLac][NMeDha]A[NMeA][ξLeu(3ξ-OH)][NMeT](Me); ester 1-C; configuration not given here) gave an EPSA in data set [1] of 106 A^2. Besides, in data set [1] (setting [23]), the “change in EPSA (in words)” value is on record as “slight changes”. The GI50 in data set [2] (setting [7]) is 1180 nM; in data set [2] (setting [8]) it was 1180 nM; in data set [2] (setting [9]), 994 nM; in data set [2] (setting [10]), 1350 nM; in data set [4] (setting [11]), more than 10000 nM; in data set [4] (setting [12]), more than 10000 nM. Moreover, the GI50 in data set [4] (setting [13]) was more than 10000 nM; in data set [4] (setting [14]), more than 10000 nM; in data set [5] (setting [15]), 1740 nM; in data set [5] (setting [16]), 1740 nM; in data set [5] (setting [17]) it was 1130 nM; in data set [5] (setting [18]), 2350 nM. The GI50 in data set [6] (setting [19]), in data set [6] (setting [20]), in data set [6] (setting [21]) and in data set [6] (setting [22]) was more than 10000 nM in each case. The “% Fraction absorbed” value in the data set with MDCK-LE monolayers was found to be 9.9%. The “% Recovery” value in the data set with MDCK-LE monolayers was 83%. Besides, the “Papp A − B” value in the data set on MDCK-LE monolayers stood at 0.55 ×10⁻⁶ cm/s. Besides, the “reduction in % FA” value with MDCK-LE monolayers (setting [23]) is approximately 5 fold. Besides, in data set [3], the “loss of potency compared to compound (A1) (growth inhibition)” value is more than 3.000 fold. In addition, the “fold change compared to compound (A1), inhibition of Gαq proteins” value in the data set with Gαq proteins is 16 fold.

The term GI50 denotes the concentration at which growth is held to half of that of the control.
